Patent US9777002B2, “Inhibitors of the renal outer medullary potassium channel” (Merck Sharp & Dohme Corp., priority 2012, dated 2017)

The compounds below were run against T1, hROMK (hKir1.1) (Homo sapiens, UniProt P48048) (assay: Thallium Flux Assay). Details: HEK293 cells stably expressing hROMK (hKir1.1).
T1 construct: expressed in transfected cells
T1 sequence (P48048 1-391): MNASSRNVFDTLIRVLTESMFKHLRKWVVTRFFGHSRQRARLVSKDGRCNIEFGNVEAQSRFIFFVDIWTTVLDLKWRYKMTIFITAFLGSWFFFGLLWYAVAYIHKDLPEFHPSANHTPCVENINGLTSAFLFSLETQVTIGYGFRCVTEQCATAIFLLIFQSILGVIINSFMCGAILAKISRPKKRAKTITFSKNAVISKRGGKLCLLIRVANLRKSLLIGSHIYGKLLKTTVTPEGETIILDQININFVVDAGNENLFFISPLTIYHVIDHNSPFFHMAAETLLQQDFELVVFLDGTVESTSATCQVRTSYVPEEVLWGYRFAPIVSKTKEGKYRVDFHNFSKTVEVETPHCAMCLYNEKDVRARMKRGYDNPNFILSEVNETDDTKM
Assay type: cell-based
Description: Cell Culture Conditions—HEK293 cells stably expressing hROMK (hKir1.1) were grown at 37° C. in a 10% CO2 humidified incubator in complete growth media: Dulbecco's Modified Eagle Medium supplemented with non-essential amino acids, Penicillin/Streptomycin/Glutamine, G418 and FBS. At >80% confluency, aspirate the media from the flask and rinse with 10 mL Calcium/Magnesium-free PBS. Add 5 mL of 1× trypsin (prepared in Ca/Mg Free PBS) to T-225 flask and return flask to 37° C./CO2 incubator for 2-3 minutes. To dislodge the cell, gently bang the side of the flask with your hand. Triturate the cells completely and then transfer the cells to 25 mL complete media. Centrifuge at 1,500 rpm for 6 min followed by resuspension in complete growth media and determine cell concentration. For typical re-seeding, 4E6 cells/T-225 flask will attain >80% confluency in 4 days. Under ideal growth conditions and appropriate tissue culture practices, this cell line is stable for 40-45 passages.
FluxOR Kit Components (Invitrogen F10017)
• FluxOR™ Reagent (Component A) • FluxOR™ Assay Buffer (Component B)—10× Concentrate • PowerLoad™ Concentrate (Component C)—100× Concentrate • Probenecid (Component D)—Lyophilized sample is kept at −20° C. Water soluble, 100× after solubilization in 1 mL water. Store at 4° C. • FluxOR™ Chloride-free Buffer (Component E)—5× Concentrate • Potassium sulfate (K2SO4) Concentrate (Component F)—125 mM in water. Store at 4° C. • Thallium sulfate (Tl2SO4) Concentrate (Component G)—50 mM in water. Store at 4° C. • DMSO (dimethyl sulfoxide, Component H)—1 mL (100%) Reagent Preparation: FluxOR Working Solutions • 1000× FluxOR™ Reagent: Reconstitute a vial of component A in 100 μl DMSO; Mix well; Store 10 μl aliquots at −20° C. • 1× FluxOR™ Assay Buffer: Dilute Component B 10-fold with water; Adjust pH to 7.4 with Hepes/NaOH; Filter and store at 4° C. • Probenecid/Assay Buffer: 100 mL of 1× FluxOR™ Assay Buffer; 1 mL of reconstituted component D; Store at 4° C. • Loading Buffer (per microplate): 10 μl 1000× FluxOR™ Reagent; 100 μl component C; 10 mL Probenecid/Assay Buffer • Compound Buffer (per microplate): 20 mL Probenecid/Assay Buffer; 0.3 mM ouabain (10 mM ouabain in water can be stored in amber bottle/aluminum foil at room temperature); Test compound • 1× FluxOR™ Chloride-Free Buffer: Prepare 1× working solution in water. Can be stored at room temperature • Stimulant Buffer (prepared at 5× final concentration in 1× FluxOR™Chloride-Free Buffer): 7.5 mM Thallium sulfate and 0.75 mM Potassium sulfate (to give a final assay concentration of 3 mM Thallium/0.3 mM Potassium). Store at 4° C. when not in use. If kept sterile, this solution is good for months.
Assay Protocol—The ROMK channel functional thallium flux assay is performed in 384 wells, using the FLIPR-Tetra instrument. HEK-hKir1.1 cells are seeded in Poly-D-Lysine microplates and kept in a 37° C.-10% CO2 incubator overnight. On the day of the experiment, the growth media is replaced with the FluxOR™ reagent loading buffer and incubated, protected from light, at ambient temperature (23-25° C.) for 90 min. The loading buffer is replaced with assay buffer± test compound followed by 30 min incubation at ambient temperature, where the Thallium/Potassium stimulant is added to the microplate.
• 1. Seed HEK-hKir1.1 cells (50 μl at 20,000 cells/well) in 384-well PDL coated Microplates • 2. Allow cells to adhere overnight in humidified 37° C./10% CO2 incubator • 3. Completely remove cell growth media from microplate and replace with 25 μl loading buffer • 4. Incubate Microplate at room temperature, protected form light, for 90 min • 5. Remove loading buffer and replace with 25 μl 1× Assay Buffer±test compound. • 6. Incubate microplate at room temperature, protected from light, for 30 min • 7. At FLIPR-Tetra 384: Add stimulant (Thallium/Potassium) solution to microplate and monitor fluorescence. Excitation=400 nm, Emission=460 & 580 nm. Collect data for ˜10 min. […]

| SMILES | IC50 [nM] |
| --- | --- |
| Cc1c([C@@H](O)CN2CCC(NC(=O)c3ccc(-n4cccn4)cc3)CC2)ccc2c1COC2=O [Example 37, (R)-N-(1-(2-Hydroxy-2-(4-methyl-1-oxo-1,3-dihydroisobenzofuran-5-yl)ethyl)piperidin-4-yl)-4-(1H-pyrazol-1-yl)benzamide] | 100 |
| Cc1c([C@@H](O)CN2CC3C(C2)C3NC(=O)c2ccc(-n3cnnn3)cn2)ccc2c1COC2=O (stereo partly drawn) [Example 56, N-(3-((R)-2-Hydroxy-2-(4-methyl-1-oxo-1,3-dihydroisobenzofuran-5-yl)ethyl)-3-azabicyclo[3.1.0]hexan-6-yl)-5-(1H-tetrazol-1-yl)picolinamide] | 710 |
| Cc1c([C@@H](O)CN2CCC(CNC(=O)c3ccc(-n4cnnn4)nc3)(c3ccccc3)C2)ccc2c1COC2=O (single isomer, unassigned) [81 B] | 160 |
| Cc1c([C@@H](O)CN2CCC(C)(NC(=O)c3ccc(-n4cnnn4)cn3)CC2)ccc2c1COC2=O [Example 60, (R)-N-(1-(2-Hydroxy-2-(4-methyl-1-oxo-1,3-dihydroisobenzofuran-5-yl)ethyl)-4-methylpiperidin-4-yl)-5-(1H-tetrazol-1-yl)picolinamide] | 180 |
| Cc1c([C@@H](O)CN2CCC(NC(=O)c3ccc(-n4cnnn4)c4ncccc34)CC2)ccc2c1COC2=O [Example 79, (R)-N-(1-(2-Hydroxy-2-(4-methyl-1-oxo-1,3-dihydroisobenzofuran-5-yl)ethyl)piperidin-4-yl)-8-(1H-tetrazol-1-yl)quinoline-5-carboxamide] | 370 |
| Cc1c([C@@H](O)CN2CCC(NC(=O)c3ccc(-n4cnnn4)cc3)CC2)ccc2c1COC2=O [Example 34, (R)-N-(1-(2-Hydroxy-2-(4-methyl-1-oxo-1,3-dihydroisobenzofuran-5-yl)ethyl)piperidin-4-yl)-4-(1H-tetrazol-1-yl)benzamide] | 230 |
| Cc1c([C@@H](O)CN2CCC(NC(=O)c3ccc(C#N)nc3)C(F)C2)ccc2c1COC2=O (single isomer, unassigned) [46 A] | 520 |
| Cc1c([C@@H](O)CN2CC[C@H](NC(=O)c3ccc(-n4cnnn4)cn3)[C@H](F)C2)ccc2c1COC2=O (single isomer, unassigned) [58 A] | 540 |
| COc1cc(C(=O)NC2CCN(CC(O)c3ccc4c(c3C)COC4=O)CC2)ccc1C#N (stereo not shown) [Example 7, 4-Cyano-N-(1-(2-hydroxy-2-(4-methyl-1-oxo-1,3-dihydroisobenzofuran-5-yl)ethyl)piperidin-4-yl)-3-methoxybenzamide] | 10 |
| Cc1cc(C(=O)NC2CCN(C[C@H](O)c3ccc4c(c3C)COC4=O)CC2)ncc1-n1cnnn1 [Example 59, (R)-N-(1-(2-Hydroxy-2-(4-methyl-1-oxo-1,3-dihydroisobenzofuran-5-yl)ethyl)piperidin-4-yl)-4-methyl-5-(1H-tetrazol-1-yl)picolinamide] | 90 |
| Cc1c([C@@H](O)CN2CCC(NC(=O)c3ccc(-n4cnnn4)nn3)CC2)ccc2c1COC2=O [Example 65, (R)-N-(1-(2-Hydroxy-2-(4-methyl-1-oxo-1,3-dihydroisobenzofuran-5-yl)ethyl)piperidin-4-yl)-6-(1H-tetrazol-1-yl)pyridazine-3-carboxamide] | 110 |
| CO[C@@H]1CN(C[C@H](O)c2ccc3c(c2C)COC3=O)CC[C@@H]1NC(=O)c1ccc(-n2cnnn2)nc1 (single isomer, unassigned) [54 B] | 340 |
| Cc1c(C(O)CN2CCC(NC(=O)c3ccc(C#N)c(F)c3)CC2)ccc2c1COC2=O (stereo not shown) [Example 16, 4-Cyano-3-fluoro-N-(1-(2-hydroxy-2-(4-methyl-1-oxo-1,3-dihydroisobenzofuran-5-yl)ethyl)piperidin-4-yl)benzamide] | 50 |
| COc1cc(C(=O)NC2CCN(CCc3ccc4c(c3C)COC4=O)CC2)ccc1C#N [Example 5, 4-Cyano-3-methoxy-N-(1-(2-(4-methyl-1-oxo-1,3-dihydroisobenzofuran-5-yl)ethyl)piperidin-4-yl)benzamide] | 20 |
| Cc1c([C@@H](O)CN2CCC(C)(NC(=O)c3ccc(-n4cnnn4)nc3)CC2)ccc2c1COC2=O [Example 51, (R)-N-(1-(2-Hydroxy-2-(4-methyl-1-oxo-1,3-dihydroisobenzofuran-5-yl)ethyl)-4-methylpiperidin-4-yl)-6-(1H-tetrazol-1-yl)nicotinamide] | 390 |
| Cc1c([C@@H](O)CN2C3CCC2CC(NC(=O)c2ccc(-n4cnnn4)cn2)C3)ccc2c1COC2=O (stereo partly drawn) [Example 76, N-(8-((R)-2-Hydroxy-2-(4-methyl-1-oxo-1,3-dihydroisobenzofuran-5-yl)ethyl)-8-azabicyclo[3.2.1]octan-3-yl)-5-(1H-tetrazol-1-yl)picolinamide] | 430 |
| Cc1c(CCN2CCC(NC(=O)c3ccnc(-n4cnnn4)c3)CC2)ccc2c1COC2=O [Example 15, N-(1-(2-(4-Methyl-1-oxo-1,3-dihydroisobenzofuran-5-yl)ethyl)piperidin-4-yl)-2-(1H-tetrazol-1-yl)isonicotinamide] | 450 |
| Cc1cc(C(=O)NC2CCN(C[C@H](O)c3ccc4c(c3C)COC4=O)CC2)ncc1C#N [Example 22, (R)-5-cyano-N-(1-(2-hydroxy-2-(4-methyl-1-oxo-1,3-dihydroisobenzofuran-5-yl)ethyl)piperidin-4-yl)-4-methylpicolinamide] | 20 |
| Cc1c([C@@H](O)CN2CCC(N3Cc4cc(-n5cnnn5)ccc4C3=O)CC2)ccc2c1COC2=O [Example 91, (R)-2-(1-(2-Hydroxy-2-(4-methyl-1-oxo-1,3-dihydroisobenzofuran-5-yl)ethyl)piperidin-4-yl)-5-(1H-tetrazol-1-yl)isoindolin-1-one] | 130 |
| COc1ccc(C(=O)NC2CCN(CC(O)c3ccc4c(c3C)COC4=O)CC2)cc1C#N (stereo not shown) [Example 10, 3-Cyano-N-(1-(2-hydroxy-2-(4-methyl-1-oxo-1,3-dihydroisobenzofuran-5-yl)ethyl)piperidin-4-yl)-4-methoxybenzamide] | 60 |
| Cc1c([C@@H](O)CN2CCCC(C)(CNC(=O)c3ccc(-n4cnnn4)nc3)C2)ccc2c1COC2=O (stereo partly drawn) [Example 83, N-((1-((R)-2-Hydroxy-2-(4-methyl-1-oxo-1,3-dihydroisobenzofuran-5-yl)ethyl)-3-methylpiperidin-3-yl)methyl)-6-(1H-tetrazol-1-yl)nicotinamide] | 720 |
| Cc1c(CCN2CCC(NC(=O)c3ccc4nonc4c3)CC2)ccc2c1COC2=O [Example 8, N-(1-(2-(4-Methyl-1-oxo-1,3-dihydroisobenzofuran-5-yl)ethyl)piperidin-4-yl)benzo[c][1,2,5]oxadiazole-5-carboxamide] | 460 |
